{"source": "PubChem BioAssay AID328", "about": "(DTP/NCI, 2004)", "tested_on": "BDF1 mice, P388 leukemia ip, median survival T/C", "assay": "NCI In Vivo Anticancer Drug Screen. Data for tumor model P388 Leukemia (intraperitoneal) in B6D2F1 (BDF1) mice", "details": "endpoint: median survival time, higher = longer survival", "summary_of_the_method": "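Survival ratio, drug arm over vehicle arm, in mice with a transplanted tumour.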", "key": {"[1]": {"details": "dose: 50.0 mg/kg/injection, schedule: Q01DX009 (ip), vehicle: saline"}, "[2]": {"details": "dose: 100.0 mg/kg/injection, schedule: Q01DX009 (ip), vehicle: saline"}, "[3]": {"details": "dose: 200.0 mg/kg/injection, schedule: Q01DX009 (ip), vehicle: saline"}, "[4]": {"details": "dose: 6.25 mg/kg/injection, schedule: Q01DX009 (ip), vehicle: saline with Tween-80"}}, "note": "Where “and” joins values, the source holds several entries; their conditions need not be identical. Identical values can stand only once. Toxic doses and inconclusive results are not listed.", "data": [{"smiles": "Cc1c(F)cc(I)cc1[N+](=O)[O-]", "values": [{"measurement": "T/C", "setting": "dose: 100.0 mg/kg/injection, schedule: Q01DX001 (ip), vehicle: Klucel (hydroxypropylcellulose) (HPC)", "result": "113 % of control"}, {"measurement": "T/C", "setting": "dose: 200.0 mg/kg/injection, schedule: Q01DX001 (ip), vehicle: Klucel (hydroxypropylcellulose) (HPC)", "result": "104 % of control"}, {"measurement": "T/C", "setting": "dose: 400.0 mg/kg/injection, schedule: Q01DX001 (ip), vehicle: Klucel (hydroxypropylcellulose) (HPC)", "result": "118 % of control"}]}, {"smiles": "O=C1C2C3CC4C2C(=O)C2C1C3C42", "note": "(stereo unspecified)", "values": [{"measurement": "T/C", "setting": "dose: 100.0 mg/kg/injection, schedule: Q04DX003 (ip), vehicle: saline", "result": "90 % of control"}, {"measurement": "T/C", "setting": "dose: 200.0 mg/kg/injection, schedule: Q04DX003 (ip), vehicle: saline", "result": "102 % of control"}, {"measurement": "T/C", "setting": "dose: 400.0 mg/kg/injection, schedule: Q04DX003 (ip), vehicle: saline", "result": "90 % of control"}]}, {"smiles": "Cc1nc[nH]c(=O)c1N", "values": [{"measurement": "T/C", "setting": "[1]", "result": "102 % of control"}, {"measurement": "T/C", "setting": "[2]", "result": "102 % of control"}, {"measurement": "T/C", "setting": "[3]", "result": "102 % of control"}]}, {"smiles": "O=c1c2ccccc2nc(-c2ccccc2Cl)n1-c1nnc(C(F)(F)F)s1", "values": [{"measurement": "T/C", "setting": "dose: 3.12 mg/kg/injection, schedule: Q01DX009 (ip), vehicle: saline with Tween-80", "result": "87 % of control"}, {"measurement": "T/C", "setting": "[4]", "result": "89 % of control"}, {"measurement": "T/C", "setting": "dose: 12.5 mg/kg/injection, schedule: Q01DX009 (ip), vehicle: saline with Tween-80", "result": "89 % of control"}]}, {"smiles": "Cc1ccc(Nc2nc(N)nc(N)c2N)cc1Cl", "values": [{"measurement": "T/C", "setting": "dose: 33.0 mg/kg/injection, schedule: Q01DX009 (ip), vehicle: saline with Tween-80", "result": "120 % of control"}]}, {"smiles": "COc1ccc(-c2c(CC(=O)O)c3cc(OC)ccc3n2Cc2ccc(Cl)cc2)cc1", "values": [{"measurement": "T/C", "setting": "dose: 100.0 mg/kg/injection, schedule: Q01DX009 (ip), vehicle: saline with Tween-80", "result": "90 % of control"}, {"measurement": "T/C", "setting": "dose: 200.0 mg/kg/injection, schedule: Q01DX009 (ip), vehicle: saline with Tween-80", "result": "113 % of control"}, {"measurement": "T/C", "setting": "dose: 400.0 mg/kg/injection, schedule: Q01DX009 (ip), vehicle: saline with Tween-80", "result": "90 % of control"}]}, {"smiles": "[Cr+6].[NH2-].[NH2-].[NH2-].[NH2-].[NH2-].[NH2-]", "values": [{"measurement": "T/C", "setting": "dose: 4.1 mg/kg/injection, schedule: Q04DX003 (ip), vehicle: saline", "result": "116 % of control"}, {"measurement": "T/C", "setting": "dose: 5.4 mg/kg/injection, schedule: Q04DX003 (ip), vehicle: saline", "result": "109 % of control"}, {"measurement": "T/C", "setting": "dose: 6.25 mg/kg/injection, schedule: Q01DX009 (ip), vehicle: saline", "result": "120 % of control"}, {"measurement": "T/C", "setting": "dose: 8.2 mg/kg/injection, schedule: Q01DX009 (ip), vehicle: saline", "result": "122 % of control"}, {"measurement": "T/C", "setting": "dose: 8.2 mg/kg/injection, schedule: Q04DX003 (ip), vehicle: saline", "result": "109 % of control"}, {"measurement": "T/C", "setting": "dose: 25.0 mg/kg/injection, schedule: Q01DX001 (ip), vehicle: saline", "result": "112 % of control"}, {"measurement": "T/C", "setting": "dose: 50.0 mg/kg/injection, schedule: Q01DX001 (ip), vehicle: saline", "result": "112 % of control"}]}, {"smiles": "N#CC1(C#N)C(c2ccccc2)C1(C#N)C#N", "values": [{"measurement": "T/C", "setting": "dose: 2.0 mg/kg/injection, schedule: Q01DX009 (ip), vehicle: saline with Tween-80", "result": "120 % of control"}, {"measurement": "T/C", "setting": "dose: 2.66 mg/kg/injection, schedule: Q01DX009 (ip), vehicle: saline with Tween-80", "result": "122 % of control"}, {"measurement": "T/C", "setting": "dose: 2.66 mg/kg/injection, schedule: Q01DX009 (ip), vehicle: saline", "result": "109 % of control and 120 % of control"}, {"measurement": "T/C", "setting": "dose: 4.0 mg/kg/injection, schedule: Q01DX009 (ip), vehicle: saline", "result": "108 % of control"}, {"measurement": "T/C", "setting": "dose: 6.0 mg/kg/injection, schedule: Q01DX009 (ip), vehicle: saline", "result": "118 % of control"}, {"measurement": "T/C", "setting": "[4]", "result": "115 % of control"}, {"measurement": "T/C", "setting": "dose: 8.0 mg/kg/injection, schedule: Q01DX009 (ip), vehicle: saline with Tween-80", "result": "120 % of control"}]}, {"smiles": "COC(=O)C1(Cc2ccccc2)CCCC1(C#N)O[Si](C)(C)C", "note": "(stereo unspecified)", "values": [{"measurement": "T/C", "setting": "dose: 12.5 mg/kg/injection, schedule: Q04DX003 (ip), vehicle: saline with Tween-80", "result": "92 % of control"}, {"measurement": "T/C", "setting": "dose: 25.0 mg/kg/injection, schedule: Q04DX003 (ip), vehicle: saline with Tween-80", "result": "106 % of control"}, {"measurement": "T/C", "setting": "dose: 50.0 mg/kg/injection, schedule: Q04DX003 (ip), vehicle: saline with Tween-80", "result": "97 % of control"}]}, {"smiles": "C(=C\\CN(Cc1ccccc1)Cc1ccccc1)/CN(Cc1ccccc1)Cc1ccccc1", "values": [{"measurement": "T/C", "setting": "dose: 50.0 mg/kg/injection, schedule: Q01DX009 (ip), vehicle: Klucel (hydroxypropylcellulose) (HPC)", "result": "104 % of control"}, {"measurement": "T/C", "setting": "dose: 100.0 mg/kg/injection, schedule: Q01DX009 (ip), vehicle: Klucel (hydroxypropylcellulose) (HPC)", "result": "104 % of control"}, {"measurement": "T/C", "setting": "dose: 200.0 mg/kg/injection, schedule: Q01DX009 (ip), vehicle: Klucel (hydroxypropylcellulose) (HPC)", "result": "95 % of control"}]}, {"smiles": "C=CC(=O)NC(C)C(=O)O", "note": "(stereo unspecified)", "values": [{"measurement": "T/C", "setting": "[1]", "result": "105 % of control"}, {"measurement": "T/C", "setting": "[2]", "result": "105 % of control"}, {"measurement": "T/C", "setting": "[3]", "result": "100 % of control"}]}, {"smiles": "COc1cc2c(c(OC)c1OC)-c1cc(I)c(O)cc1[C@@H](NC(C)=O)CC2", "values": [{"measurement": "T/C", "setting": "dose: 2.75 mg/kg/injection, schedule: Q04DX003 (ip), vehicle: saline with Tween-80", "result": "110 % of control"}, {"measurement": "T/C", "setting": "dose: 5.5 mg/kg/injection, schedule: Q04DX003 (ip), vehicle: saline with Tween-80", "result": "104 % of control"}, {"measurement": "T/C", "setting": "dose: 11.0 mg/kg/injection, schedule: Q04DX003 (ip), vehicle: saline with Tween-80", "result": "155 % of control"}, {"measurement": "T/C", "setting": "dose: 22.0 mg/kg/injection, schedule: Q04DX003 (ip), vehicle: saline with Tween-80", "result": "160 % of control"}, {"measurement": "T/C", "setting": "dose: 66.0 mg/kg/injection, schedule: Q04DX003 (ip), vehicle: saline with Tween-80", "result": "185 % of control and 222 % of control"}, {"measurement": "T/C", "setting": "dose: 100.0 mg/kg/injection, schedule: Q04DX003 (ip), vehicle: saline with Tween-80", "result": "180 % of control and 194 % of control"}, {"measurement": "T/C", "setting": "dose: 150.0 mg/kg/injection, schedule: Q04DX003 (ip), vehicle: saline with Tween-80", "result": "205 % of control"}]}]}
